The values below come from ChEMBL document CHEMBL1201862, “PubChem BioAssay data set” (2004).

Active and inactive are the calls of the source.

The test system of one experiment is H9c2. Nature of the experiment: cells. The settings on record: Rattus norvegicus, H9c2, Myocardium. The experiment is classed as functional, cell-based.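 Also: confirmatory concentration-response retest of ultra-high-throughput screening hits for modulation of myocardial damage; cell death induced by hydrogen peroxide oxidative stress; compound pretreatment for 60 min then peroxide exposure for 2 h; potency is for protecting the cells against peroxide damage rather than for killing them.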
The target of a further experiment is Melanocortin receptor 4 (Homo sapiens, UniProt P32245). The class given is functional, cell-based.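 Also: Cell-based assay with luminescence read-out, confirmatory dose-response testing for agonist activity of biased ligands at MC4R; human U2OS cells with tagged receptor and beta-arrestin; potency of agonists that increase receptor coupling to beta-arrestin.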
Melanocortin receptor 4, sequence (P32245 whole entry): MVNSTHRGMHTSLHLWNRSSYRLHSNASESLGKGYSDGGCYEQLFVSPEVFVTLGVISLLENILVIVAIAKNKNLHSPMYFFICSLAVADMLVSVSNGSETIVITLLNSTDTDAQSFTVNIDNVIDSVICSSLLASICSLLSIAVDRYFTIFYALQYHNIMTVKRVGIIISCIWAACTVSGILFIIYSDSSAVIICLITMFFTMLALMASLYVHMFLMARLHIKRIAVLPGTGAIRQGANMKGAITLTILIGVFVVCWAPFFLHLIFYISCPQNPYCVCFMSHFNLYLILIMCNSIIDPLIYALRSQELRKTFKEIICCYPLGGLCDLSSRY
The nature of experiment [1]: cytotoxicity toward NIH3T3 fibroblasts, dose response, counter-screen, cell-based, ATP luminescence, mouse fibroblasts (AID 2010).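 Also: cells exposed to compound for about 90 hours before reading.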 The class given is functional.
Experiment [2] concerns the target T1, DNA repair protein RAD52 homolog (Homo sapiens, UniProt P43351).
T1 sequence (P43351 whole entry): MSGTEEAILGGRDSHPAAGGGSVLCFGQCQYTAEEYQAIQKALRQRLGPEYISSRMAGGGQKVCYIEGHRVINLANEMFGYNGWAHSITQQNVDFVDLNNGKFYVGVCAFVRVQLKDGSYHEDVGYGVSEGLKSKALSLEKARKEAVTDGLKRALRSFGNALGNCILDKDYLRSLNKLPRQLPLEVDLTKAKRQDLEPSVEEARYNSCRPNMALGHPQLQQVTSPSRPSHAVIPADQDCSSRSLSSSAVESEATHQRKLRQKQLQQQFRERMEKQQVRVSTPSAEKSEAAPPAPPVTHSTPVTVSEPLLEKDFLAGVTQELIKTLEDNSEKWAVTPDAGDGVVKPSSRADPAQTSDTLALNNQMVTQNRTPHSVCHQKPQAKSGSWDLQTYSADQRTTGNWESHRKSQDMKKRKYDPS
The class given is functional, biochemical.

Experiment [3] in a line: inhibitors of intracellular T. cruzi replication, confirmation, NIH3T3 host cells, beta-gal luminescence (AID 2044).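 Also: intracellular parasites grown in NIH/3T3 mouse fibroblasts as host cells; luminescent beta-galactosidase reporter signal from transgenic T. cruzi replicating inside host cells; inhibitors lower the luminescence signal.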 The experiment is classed as functional, cell-based.
The target in experiment [4] is T2, Ubiquitin-conjugating enzyme E2 N (Homo sapiens, UniProt P61088).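 Also: Dose-response confirmation in a TR-FRET assay detecting UBC13-driven polyubiquitin chain formation, inhibition measured.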
T2 sequence (P61088 whole entry): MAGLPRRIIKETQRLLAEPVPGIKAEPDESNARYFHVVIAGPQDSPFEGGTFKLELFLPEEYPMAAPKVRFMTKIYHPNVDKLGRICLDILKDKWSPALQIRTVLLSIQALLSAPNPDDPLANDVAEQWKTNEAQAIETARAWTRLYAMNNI
The experiment is classed as functional.

In experiment [5] the target is T3, Caspase-3 (Homo sapiens, UniProt P42574).
T3 sequence (P42574 whole entry): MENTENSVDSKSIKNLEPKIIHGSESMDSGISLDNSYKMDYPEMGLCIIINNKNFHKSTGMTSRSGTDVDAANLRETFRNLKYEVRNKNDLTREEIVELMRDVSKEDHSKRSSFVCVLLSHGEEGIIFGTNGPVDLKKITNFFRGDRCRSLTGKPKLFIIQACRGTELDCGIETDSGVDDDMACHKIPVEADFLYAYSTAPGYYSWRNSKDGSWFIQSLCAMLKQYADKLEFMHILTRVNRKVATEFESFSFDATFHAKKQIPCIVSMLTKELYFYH
Description: SAR Analysis of small molecule inhibitors of Sentrin-specific proteases (SENPs) using a Caspase-3 Selectivity assay. [Related pubchem assays (depositor defined):AID2540, AID2599, AID434973, AID489001]. The experiment is classed as functional.

Experiment [6] has as its target T4, Sentrin-specific protease 8 (Homo sapiens, UniProt Q96LD8).
T4 sequence (Q96LD8 whole entry): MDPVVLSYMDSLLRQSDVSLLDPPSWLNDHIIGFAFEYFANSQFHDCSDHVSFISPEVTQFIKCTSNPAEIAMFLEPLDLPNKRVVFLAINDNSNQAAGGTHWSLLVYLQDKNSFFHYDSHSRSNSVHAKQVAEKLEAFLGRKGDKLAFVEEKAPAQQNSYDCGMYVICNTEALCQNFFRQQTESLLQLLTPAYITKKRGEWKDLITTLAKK
Nature of the experiment: SENP8 protease inhibitors, SAR follow-up, biochemical, luminescence (AID 504501). The class given is functional.

For experiment [7], the target named is T5, Sentrin-specific protease 6 (Homo sapiens, UniProt Q9GZR1).
T5 sequence (Q9GZR1 whole entry): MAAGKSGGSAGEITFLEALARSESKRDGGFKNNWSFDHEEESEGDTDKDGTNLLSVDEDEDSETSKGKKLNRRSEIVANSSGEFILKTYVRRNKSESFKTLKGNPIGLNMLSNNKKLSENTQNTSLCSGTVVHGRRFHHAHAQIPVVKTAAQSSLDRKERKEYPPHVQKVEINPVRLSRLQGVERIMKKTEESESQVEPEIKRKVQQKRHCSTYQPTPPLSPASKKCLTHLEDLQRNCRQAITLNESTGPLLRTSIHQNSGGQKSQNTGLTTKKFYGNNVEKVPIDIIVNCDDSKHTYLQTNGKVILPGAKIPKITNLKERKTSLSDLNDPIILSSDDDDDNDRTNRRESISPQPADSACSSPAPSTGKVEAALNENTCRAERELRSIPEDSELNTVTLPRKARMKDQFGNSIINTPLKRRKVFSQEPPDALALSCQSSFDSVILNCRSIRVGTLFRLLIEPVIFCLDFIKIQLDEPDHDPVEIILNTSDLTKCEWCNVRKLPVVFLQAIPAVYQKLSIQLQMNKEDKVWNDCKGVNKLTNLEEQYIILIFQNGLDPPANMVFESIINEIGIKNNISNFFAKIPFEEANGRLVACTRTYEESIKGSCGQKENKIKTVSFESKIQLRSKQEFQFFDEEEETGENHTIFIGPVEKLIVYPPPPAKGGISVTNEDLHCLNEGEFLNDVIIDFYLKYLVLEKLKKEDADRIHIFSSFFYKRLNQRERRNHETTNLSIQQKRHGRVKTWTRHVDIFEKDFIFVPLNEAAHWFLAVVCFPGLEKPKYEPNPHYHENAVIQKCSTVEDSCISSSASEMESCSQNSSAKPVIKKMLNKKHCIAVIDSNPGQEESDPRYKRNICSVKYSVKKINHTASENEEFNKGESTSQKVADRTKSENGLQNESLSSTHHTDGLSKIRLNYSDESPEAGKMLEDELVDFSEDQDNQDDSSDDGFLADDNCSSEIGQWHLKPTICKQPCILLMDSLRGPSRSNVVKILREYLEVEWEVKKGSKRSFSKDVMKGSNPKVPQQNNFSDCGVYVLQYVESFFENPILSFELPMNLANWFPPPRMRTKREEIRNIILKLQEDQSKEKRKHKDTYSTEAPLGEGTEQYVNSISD
Description: SAR Analysis of small molecule inhibitors of Sentrin-specific protease 6 (SENP6) using a Luminescent assay. [Related pubchem assays (depositor defined):AID2582, AID2599]. The experiment is classed as functional.

In experiment [8] the target is T6, Sentrin-specific protease 7 (Homo sapiens, UniProt Q9BQF6).
T6 sequence (Q9BQF6 whole entry): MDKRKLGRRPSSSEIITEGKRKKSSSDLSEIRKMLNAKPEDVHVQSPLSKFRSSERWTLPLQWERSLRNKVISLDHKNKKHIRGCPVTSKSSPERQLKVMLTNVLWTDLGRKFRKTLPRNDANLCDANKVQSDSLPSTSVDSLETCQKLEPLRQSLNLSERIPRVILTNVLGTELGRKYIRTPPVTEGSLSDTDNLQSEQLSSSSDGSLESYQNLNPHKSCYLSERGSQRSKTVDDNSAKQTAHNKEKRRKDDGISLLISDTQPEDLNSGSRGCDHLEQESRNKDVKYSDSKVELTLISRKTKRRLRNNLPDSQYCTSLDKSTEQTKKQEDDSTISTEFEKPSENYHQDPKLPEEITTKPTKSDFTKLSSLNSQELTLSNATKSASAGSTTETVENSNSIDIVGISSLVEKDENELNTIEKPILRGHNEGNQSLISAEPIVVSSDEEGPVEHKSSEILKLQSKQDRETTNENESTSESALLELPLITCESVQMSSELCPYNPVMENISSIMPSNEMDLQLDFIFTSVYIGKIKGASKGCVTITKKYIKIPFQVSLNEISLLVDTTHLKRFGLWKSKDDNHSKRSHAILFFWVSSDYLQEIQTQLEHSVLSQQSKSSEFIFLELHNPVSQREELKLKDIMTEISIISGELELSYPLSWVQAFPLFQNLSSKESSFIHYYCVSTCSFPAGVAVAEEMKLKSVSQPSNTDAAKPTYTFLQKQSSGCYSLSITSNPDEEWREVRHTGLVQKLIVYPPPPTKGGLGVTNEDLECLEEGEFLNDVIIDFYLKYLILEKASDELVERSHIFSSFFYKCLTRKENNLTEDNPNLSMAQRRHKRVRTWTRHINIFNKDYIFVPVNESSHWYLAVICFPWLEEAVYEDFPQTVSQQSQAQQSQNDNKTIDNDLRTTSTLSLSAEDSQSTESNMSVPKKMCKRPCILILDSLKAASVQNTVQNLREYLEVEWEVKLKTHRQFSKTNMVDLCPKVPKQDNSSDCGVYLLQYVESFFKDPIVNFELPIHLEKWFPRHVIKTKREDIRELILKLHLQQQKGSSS
Description: SENP7 protease inhibitors, SAR follow-up, biochemical, luminescence (AID 504497). The class given is functional.

The nature of experiment [9]: ZM109 Env clade C HIV-1 fusion inhibitors, dose response, HeLa effector, CEM target cells, luciferase, cherry-pick (AID 652058). The class given is functional, cell-based.
Experiment [10] is described as follows: CEM21 lymphoblast cell cytotoxicity, dose response, cytotoxicity control for viral fusion inhibitor project, CellTiter-Glo luminescence, cherry-picked (AID 652042).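 Also: potency for signal decrease meaning cytotoxicity.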 The class given is functional, cell-based.
Experiment [11] in a line: inhibitors of clade B AD8 Env fusion, dose response, cell-based, cherry-pick (AID 652062).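 Also: luciferase signal from cell-cell fusion driven by HIV-1 clade B AD8 Env; potency is for inhibitors of fusion seen as a drop in luminescence.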 The experiment is classed as functional.
Experiment [12] in a line: off-target signal loss in HeLa-CEM21 co-culture – HeLa F-luc CTL cells, cherry-picked, counter-screen for HIV-1 Env fusion inhibitor project, dose response (AID 652040).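 Also: potency for signal decrease marking cytotoxic or nonspecific inhibition.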 The class given is functional, cell-based.
A short description of experiment [13]: HEp-2 cell cytotoxicity, dose response, cytotoxicity control for RSV inhibitor project, HTS (AID 2410). The experiment is classed as functional. As to conditions: human respiratory syncytial virus.
A short description of experiment [14]: inhibitors of HIV Env-driven cell fusion, dose response, cherry-pick (AID 652057). The class given is functional, cell-based.
Experiment [15] concerns the target T3, Caspase-3. The class given is functional.
For experiment [16], the target named is T4, Sentrin-specific protease 8. The class given is functional.
Experiment [17] concerns the target T5, Sentrin-specific protease 6. The class given is functional.
Experiment [18] deals with T6, Sentrin-specific protease 7. The class given is functional.
Another experiment relates to P388. Description: cells. The class given is functional. The settings on record: Mus musculus.
The next experiment deals with SN12K1. Nature of the experiment: cells. The settings on record: Homo sapiens. The experiment is classed as functional.
In a further experiment the test system is P388/ADR. Nature of the experiment: cells. The experiment is classed as functional. The settings on record: Mus musculus.

As for `COc1cccc(-c2cnc3c(NC=O)cc(-c4cc(OC)c(OC)c(OC)c4)cn23)c1`, the IC50 with H9c2 is > 79 µM (inactive). Moreover, the EC50 at Melanocortin receptor 4 is > 89.2 µM (inactive).
`N=C(N)Nc1nc(-c2ccccc2)c2cc(Cl)ccc2n1`: the EC50 was > 60 µM (not active) in experiment [1], > 89.2 µM (inactive) on Melanocortin receptor 4 and 382 nM (active) in experiment [3]. For the same compound, the AC50 in experiment [2] was 6.61 µM (active). Also, the IC50 in [4] was > 20 µM (inactive).
Take `O=C(/C=C/c1ccc(OC2CSC2)cc1)c1ccc(Cl)cc1`: the IC50 (on Caspase-3 [5]; in experiment [6]; in experiment [7]; in experiment [8]) was > 99 µM (inactive) in each case.
For the compound `CCOc1cc(CNCCc2c[nH]c3ccccc23)cc(Cl)c1OCC`, the AC50 in [9] is 2.31 µM (active); in experiment [10] it was 26.6 µM (active); in [11], 27.2 µM (active); in experiment [12] it was 6.11 µM (active); in experiment [14] it was 4.29 µM (active). On Melanocortin receptor 4, the EC50 was > 89.2 µM (inactive). The CC50 in experiment [13] is 14.9 µM (active).
On to `CCc1ccc2oc(-c3ccc(NC(C)=O)cc3)nc2c1`, for which the IC50 at Caspase-3 [5] was 7.01 µM (active); on Caspase-3 [15], 12.4 µM (active); in experiment [6], 5.46 µM (active); in [7], 5.12 µM (active); in experiment [16] it was 13.2 µM (active); in [8], 2.09 µM (active). For the same compound, the values for the IC50 in experiment [17] and in experiment [18] were 8.05 µM (active) and 2.89 µM (active), respectively. For the same compound, the CC50 in experiment [13] was 22.2 µM (active).
With `CC(=O)Oc1ccc(C2COc3cc(OC(C)=O)c(OC(C)=O)cc3C2)cc1` (configuration not stated), the GI50 is 6 µM (inactive) with P388, 13 µM (inactive) in the experiment on SN12K1 and 5.42 µM (inactive) with P388/ADR.
In the case of `O=C(O)CC(NC(=O)CP(=O)(O)O)C(=O)O` (configuration not stated), the GI50 was 127 µM (inactive) with P388, 5.32 µM (inactive) in the experiment with SN12K1 and 77.1 µM (inactive) in the experiment on P388/ADR.
With `Fc1cc(C(F)(F)F)ccc1-c1nc(/C=C/c2ccccc2)no1`, the IC50 (at Caspase-3 [5]; in experiment [6]; in experiment [7]; in [8]) was > 99 µM (inactive) throughout.
As to `C/C(=C\c1ccccc1)C(=O)CCN1CCOCC1`, the GI50 in the experiment on P388 was 4.78 µM (inactive); in the experiment with SN12K1, 17.9 µM (inactive); in the experiment on P388/ADR, 5.73 µM (inactive).
For the compound `O=C(Nc1nc2ccc(NC(=O)c3n[nH]c4c3CCc3ccccc3-4)cc2s1)c1ccccc1`, the IC50 (at Caspase-3 [5]; in [6]; in [7]; in [8]) was > 99 µM (inactive) throughout.
For the compound `CSCSCC(CO)NC(=O)/C(C)=C\c1c(C)[nH]c(=O)[nH]c1=O` (configuration not stated), the GI50 in the experiment with P388, with SN12K1 and in the experiment with P388/ADR was > 250 µM (inactive) throughout.
